The nature of the data set: solvent given as SMILES.

SMILES strings stand for the structures.

On to `Cc1csc2[n+]1[B-](F)(F)n1c(c3cccc4cccc1c43)=N2`, for which the absorption maximum was determined as 476 nm (in C1CCOC1); 470 nm (in CC#N); 477 nm (in CCCCCC); 479 nm (in Cc1ccccc1); 445 nm (in ClCCl).

`Cc1cccc2nc(-c3ccc(-c4cc(=O)cc(-c5ccccc5)o4)cc3)c(NC3CCCCC3)n12` displayed an absorption maximum (in ClCCl) of 356 nm.

In turn, `CCCCN1C(=O)c2cc(Oc3ccc(C(C)(C)C)cc3)c3c4c(Oc5ccc(C(C)(C)C)cc5)cc5c(=O)n6c(c7cc(Oc8ccc(C(C)(C)C)cc8)c(c8c(Oc9ccc(C(C)(C)C)cc9)cc(c2c38)C1=O)c4c57)=Cc1ccc2ccccc2[n+]1[B-]6(F)F` returned an absorption maximum (in ClCCl) of 648 nm.

Regarding `CC(C)CN1C(=O)/C(=C/c2ccc(C#N)cc2)C=C1c1ccccc1`, the absorption maximum (in C1COCCO1) was determined as 440 nm.

`O=C(c1ccc(N2c3ccccc3Oc3ccccc32)cc1)c1cccc(C(=O)c2ccc(N3c4ccccc4Oc4ccccc43)cc2)c1` returned an absorption maximum (in Cc1ccccc1) of 416 nm.

In the case of `CCCCCCCCc1ccc(-n2c3c4ccccc4nc(-c4ccc(C#N)cc4)c3c3c2c2c(-c4ccc(C#N)cc4)nc4ccccc4c2n3-c2ccc(CCCCCCCC)cc2)cc1`, the absorption maximum (in ClC(Cl)Cl) came out at 314 nm.

As to `COc1cccc(/C=C/C(=O)c2c(O)cc(C)oc2=O)c1`, the absorption maximum reads like this: (in CC#N) 373 nm; (in ClCCl) 377 nm.

In turn, `CC1(C)c2ccccc2N(c2ccc(-c3cccc(C#N)c3)cc2)c2ccccc21` registered an absorption maximum (in Cc1ccccc1) of 344 nm.

Under “in Cc1ccccc1”, `c1ccc2c(c1)CCc1ccccc1N2c1c2ccccc2c(N2c3ccccc3CCc3ccccc32)c2ccccc12` registered an absorption maximum of 456 nm.

For `c1ccc(C[n+]2cc3ccc4c[n+](Cc5ccccc5)cc5ccc(c2)c3c45)cc1`, the absorption maximum (in CC#N) was 421 nm.

Regarding `Nc1ccccc1`, under “in C1CCCCC1”, the absorption maximum turned out to be 283.13 nm.

As to `Oc1ccccc1/C=N/CC/N=C/c1ccccc1O`, where the note is “in CC#N”, the absorption maximum came out at 396 nm.

Turning to `N#Cc1ccc(-c2ccc(C3=CCCCC3)s2)s1`, the absorption maximum was found to be 366 nm (in C1CCOC1); 366 nm (in CC#N); 366 nm (in CCCCCC); 366 nm (in CCO); 366 nm (in OCCOCCO); 369 nm (in c1ccncc1).

Consider `COC(=O)c1c(-c2cc3ccccc3oc2=O)nn(-c2ccccc2)c1C(=O)OC`, for which, where the note is “in ClCCl”, the absorption maximum was 322 nm.

As for `C(=N\c1ccc(-c2cn3nc(-c4cccs4)sc3n2)cc1)/c1ccc(N(c2ccccc2)c2ccccc2)cc1`, the absorption maximum (in ClC(Cl)Cl) was determined as 390 nm.

`COc1ccc(-c2cc3oc(=O)cc(C)c3cc2-c2ccc(OC)c(OC)c2)cc1OC` yielded an absorption maximum (in C1CCOC1) of 346 nm.

Take `Cc1cc2c(ccc3c(C)[n+](C)c(C)cc32)c(C)[n+]1C`: where the note is “in CC#N”, the absorption maximum came to 406 nm.

Regarding `CCCC1=Cc2nc1ccc1[nH]c(cc1CCC)c1nc(c(N)cc3[nH]c2cc3CCC)C(CCC)=C1`, the absorption maximum (in Cc1ccccc1) came to 710 nm.

For `N#Cc1cc2nc3c(nc2cc1C#N)C1c2ccc(N(c4ccccc4)c4ccccc4)cc2C3c2ccc(N(c3ccccc3)c3ccccc3)cc21`, the absorption maximum turned out to be 428 nm (in C1CCCCC1), 410 nm (in CC#N), 420 nm (in Cc1ccccc1) and 428 nm (in ClCCl).

As to `COc1ccc(-n2c(-c3ccc(-c4cncc5ccccc45)cc3)nc(-c3ccccc3)c2-c2ccccc2)cc1`, the absorption maximum (in C1CCOC1) was found to be 328 nm.

Take `Cc1ccc(-c2cc(-c3ccccc3Cl)c3c(N)nc(N4CCCC4)c(C#N)c3n2)cc1`: the absorption maximum is, setting by setting: (in CC#N) 414 nm; (in CC(C)=O) 422 nm; (in CC(C)O) 414 nm; (in CO) 416 nm; (in ClC(Cl)Cl) 418 nm; (in ClCCl) 422 nm. In addition, the absorption maximum (in c1ccccc1) was 426 nm.

As for `COc1c2ccccc2c(OC)c2c(C#Cc3ccccc3)c3cc4ccccc4cc3c(C#Cc3ccccc3)c12`, under “in ClCCl”, the absorption maximum was 704 nm.

Consider `CC(C)(C)c1ccc2c(c1)c1cc(C(C)(C)C)ccc1n2-c1ccc(N(c2ccc(-c3ccc(-c4ccc(N(c5ccc(-n6c7ccc(C(C)(C)C)cc7c7cc(C(C)(C)C)ccc76)cc5)c5ccc(-n6c7ccc(C(C)(C)C)cc7c7cc(C(C)(C)C)ccc76)cc5)cc4)c4nsnc34)cc2)c2ccc(-n3c4ccc(C(C)(C)C)cc4c4cc(C(C)(C)C)ccc43)cc2)cc1`, for which the absorption maximum (in ClCCl) stood at 462 nm.

For the compound `Cc1csc2[n+]1[B-](F)(F)OC(c1ccc(N(C)C)cc1)=N2`, the absorption maximum (in C1CCOC1) is on record as 405 nm, the absorption maximum (in CC#N) was determined as 403 nm, the absorption maximum (in Cc1ccccc1) came out at 407 nm and the absorption maximum (in ClCCl) turned out to be 406 nm.

As for `COc1ccc(-n2nc(C#N)c(NC3CCCCC3)n2)cc1`, the absorption maximum by setting is: (in CC#N) 330 nm; (in CCCCCC) 325 nm; (in CCO) 333 nm; (in CN(C)C=O) 336 nm; (in ClC(Cl)Cl) 330 nm.

With `F[B-]1(F)n2c(c(-c3ccccc3)c3ccccc32)C(c2ccccc2)=C2C(c3ccccc3)=c3ccccc3=[N+]21`, the absorption maximum (in ClCCl) came out at 568 nm.

As for `CC(C)(C)c1ccc2c(c1)c1cc(C(C)(C)C)ccc1n2-c1cc(-n2c3ccc(C(C)(C)C)cc3c3cc(C(C)(C)C)ccc32)c(-n2c3ccc(C(C)(C)C)cc3c3cc(C(C)(C)C)ccc32)c(C#N)c1-n1c2ccc(C(C)(C)C)cc2c2cc(C(C)(C)C)ccc21`, the absorption maximum (in Cc1ccccc1) worked out at 422.84 nm.

For `CCCCCCOc1cc(C=C(C#N)C#N)c(OCCCCCC)cc1C=C(C#N)C#N`, the absorption maximum (in ClCCl) is 477 nm.

`COc1ccc(-c2nc(N)nc(C#N)c2C#N)cc1OC`: the absorption maximum by setting is: (in C1COCCO1) 347 nm; (in CC#N) 359 nm; (in CC(C)=O) 348 nm; (in CCO) 350 nm; (in CCOC(C)=O) 356 nm; (in CO) 346 nm.

On to `CCCCCCN1C(=O)c2cccc3c(-c4ccc(-c5cc(-c6ccc(C)cc6)n(-c6ccccc6)n5)s4)ccc(c23)C1=O`, for which, for the setting “in ClCCl”, the absorption maximum worked out at 402 nm.

The compound `CCn1c2c(-c3cccs3)cc(C(C)(C)C)cc2c2cc(C(C)(C)C)cc(-c3cccs3)c21` had an absorption maximum (in ClCCl) of 360 nm.

Where the note is “in CC#N”, `CC1=CC(/C=C/c2ccc(N(C)C)cc2)=[N+]2C1=C(c1ccc(I)cc1)c1c(C)cc(/C=C/c3ccc(N(C)C)cc3)n1[B-]2(F)F` displayed an absorption maximum of 701 nm.

For the setting “in ClCCl”, `CCN(CC)c1ccc2cc(-c3nc4c5cccc6ccc7cccc(c7c65)c4n3-c3ccc(C(C)(C)C)cc3)c(=O)oc2c1` yielded an absorption maximum of 410 nm.

As to `Cn1c(=O)cc(C(=O)c2ccccc2)c2sc(-c3ccc(N(c4ccccc4)c4ccccc4)cc3)cc21`, the absorption maximum is recorded as 430 nm (in CC#N) and 438 nm (in ClCCl).

In turn, `CCn1c2cc(-c3cccs3)ccc2c2ccc(-c3cccs3)cc21` displayed an absorption maximum (in ClCCl) of 370 nm.

Consider `CCC[n+]1ccc(/C=C/c2ccc(N(C)C)cc2)cc1`, for which the absorption maximum stood at 463 nm (in C1COCCO1); 485 nm (in CC(C)O); 490 nm (in CCCCO); 487 nm (in CCCO); 484 nm (in CCO); 479 nm (in CO). The absorption maximum was 476 nm (in CS(C)=O), 496 nm (in ClC(Cl)Cl), 513 nm (in ClCCl) and 477 nm (in c1ccccc1).

For `CCCCCCn1c2cc(/C=C(\C#N)c3cccs3)ccc2c2ccc(/C=C(\C#N)c3cccs3)cc21`, where the note is “in ClC(Cl)Cl”, the absorption maximum worked out at 436.68 nm.

Regarding `CN(C)c1ccc(-c2nc3cnccc3[nH]2)cc1`, the absorption maximum reads like this: (in C1CCCCC1) 327 nm; (in C1CCOC1) 332 nm; (in C1COCCO1) 331 nm; (in CC#N) 335 nm; (in CCCCO) 339 nm; (in CCCO) 339 nm. The same compound gave an absorption maximum (in CCO) of 340 nm; an absorption maximum (in CCOC(C)=O) of 332 nm; an absorption maximum (in CCOCC) of 328 nm; an absorption maximum (in CO) of 341 nm; an absorption maximum (in O) of 335 nm.

Regarding `N#Cc1c(-c2ccccc2)cc(-c2ccccc2)[nH]c1=S`, the absorption maximum is, setting by setting: (in C1COCCO1) 446 nm; (in CC#N) 434 nm; (in CCCCO) 441 nm; (in CCCO) 431 nm; (in CCO) 407 nm; (in CCOC(C)=O) 430 nm. For the same compound, the absorption maximum runs as follows: (in CCOCC) 451 nm; (in CN(C)C=O) 439 nm.

For the compound `F[B-]1(F)n2c(Cl)ccc2C(c2c(Cl)cccc2Cl)=C2C=CC(NCc3ccccc3)=[N+]21`, the absorption maximum runs as follows: (in CC#N) 479 nm; (in CCCCCC) 523 nm; (in CCOC(C)=O) 497 nm; (in CO) 488 nm; (in ClCCl) 505 nm.

On to `FC(F)(F)C(F)(F)C(F)(F)C(F)(F)C(F)(F)C(F)(F)CCOc1nnc(Cl)nn1`, for which the absorption maximum is, setting by setting: (in ClCCl) 519 nm; (in OCC(F)(F)F) 519 nm.

Turning to `CCn1c2ccccc2c2ccc(C#N)cc21`, the absorption maximum (in C1CCCCC1) stood at 366 nm.

As for `COC(=O)c1nc2c(N(C)C)nc(N)nc2n1Cc1ccccc1`, the absorption maximum runs as follows: (in C1COCCO1) 334 nm; (in CC#N) 332 nm; (in CO) 331 nm; (in ClCCl) 330 nm.

In the case of `COCc1ncc(-c2c3ccccc3c(-c3cnc(COC)nc3)c3ccccc23)cn1`, the absorption maximum is, setting by setting: (in CCO) 395 nm; (in ClCCl) 397 nm.

As for `COc1ccc(C2=C3C=c4c(oc5ccccc45)=[N+]3[B-](F)(F)n3c2cc2c4ccccc4oc23)cc1`, the absorption maximum (in C1CCCCC1) was determined as 583.5 nm, the absorption maximum (in CCOC(C)=O) was found to be 578 nm and the absorption maximum (in CO) was found to be 576.5 nm.

The record behind these values is the Deep4Chem optical property database.
